Measured values taken from publication PMC5218480 (PLoS ONE, 2017).

System: MV-4-11 cells
Test: Gene expression microarray analysis (Affymetrix PrimeView) and GSEA
Format: cell-based, human
Set-up: RFU PODN (11730768_x_at) / Fold change /veh PODN (11730768_x_at) / RFU LINC00158 (11744669_a_at) / Fold change /veh LINC00158 (11744669_a_at) / RFU DUSP10 (11751237_a_at) / Fold change /veh DUSP10 (11751237_a_at) / RFU ID3 (11757404_x_at) / Fold change /veh ID3 (11757404_x_at) / RFU PLEKHG5 (11737974_s_at) / Fold change /veh PLEKHG5 (11737974_s_at) / RFU LRRC4B (11730491_at) / Fold change /veh LRRC4B (11730491_at) / RFU GIMAP4 (11747438_a_at) / Fold change /veh GIMAP4 (11747438_a_at) / RFU KRT8 (11758183_x_at) / Fold change /veh KRT8 (11758183_x_at) / RFU CNN1 (11734310_a_at) / Fold change /veh CNN1 (11734310_a_at) / RFU VPS37D (11726825_at) / Fold change /veh VPS37D (11726825_at) / RFU C10orf10 (11716522_x_at) / Fold change /veh C10orf10 (11716522_x_at) / RFU KIR2DL2 /// KIR2DL4 /// KIR2DL5A /// KIR2DL5B /// KIR2DS1 /// KIR2DS2 /// KIR2DS3 /// KIR2DS4 /// KIR3DL3 /// KIR3DL3 /// KIR3DS1 (11738374_at) / Fold change /veh KIR2DL2 /// KIR2DL4 /// KIR2DL5A /// KIR2DL5B /// KIR2DS1 /// KIR2DS2 /// KIR2DS3 /// KIR2DS4 /// KIR3DL3 /// KIR3DL3 /// KIR3DS1 (11738374_at) / RFU C1QL1 (11718748_at) / Fold change /veh C1QL1 (11718748_at) / RFU TMPRSS4 (11747572_a_at) / Fold change /veh TMPRSS4 (11747572_a_at) / RFU HAMP (11756126_x_at) / Fold change /veh HAMP (11756126_x_at) / RFU RNFT2 (11725882_a_at) / Fold change /veh RNFT2 (11725882_a_at) / RFU NR4A2 (11747474_a_at) / Fold change /veh NR4A2 (11747474_a_at) / RFU ABCC12 (11746883_a_at) / Fold change /veh ABCC12 (11746883_a_at) / RFU TMEM136 (11760407_x_at) / Fold change /veh TMEM136 (11760407_x_at) / RFU CLDN22 /// WWC2 (11732394_at) / Fold change /veh CLDN22 /// WWC2 (11732394_at) / RFU HLA-DPB1 (11760878_x_at) / Fold change /veh HLA-DPB1 (11760878_x_at) / RFU SPINT1 (11716480_a_at) / Fold change /veh SPINT1 (11716480_a_at) / RFU GAP43 (11754022_s_at) / Fold change /veh GAP43 (11754022_s_at) / RFU A4GNT (11735810_at) / Fold change /veh A4GNT (11735810_at) / RFU PRB3 (11715151_x_at) / Fold change /veh PRB3 (11715151_x_at) / RFU TUBB4B (11761932_at) / Fold change /veh TUBB4B (11761932_at) / RFU CAPN14 (11732068_a_at) / Fold change /veh CAPN14 (11732068_a_at) / RFU TMCC2 (11721928_a_at) / Fold change /veh TMCC2 (11721928_a_at) / RFU IRGQ (11745062_a_at) / Fold change /veh IRGQ (11745062_a_at) / RFU FAM174B (11720279_a_at) / Fold change /veh FAM174B (11720279_a_at) / RFU TMPRSS4 (11748680_a_at) / Fold change /veh TMPRSS4 (11748680_a_at) / RFU FAM212B (11763350_a_at) / Fold change /veh FAM212B (11763350_a_at) / RFU PLEKHG5 (11743358_a_at) / Fold change /veh PLEKHG5 (11743358_a_at) / RFU ZSCAN30 (11745921_a_at) / Fold change /veh ZSCAN30 (11745921_a_at) / RFU CMKLR1 (11741424_a_at) / Fold change /veh CMKLR1 (11741424_a_at) / RFU LOC101060620 /// MAPK8IP1 (11723275_at) / Fold change /veh LOC101060620 /// MAPK8IP1 (11723275_at) / RFU SPTSSB (11747773_x_at) / Fold change /veh SPTSSB (11747773_x_at) / RFU PRSS12 (11739890_at) / Fold change /veh PRSS12 (11739890_at) / RFU BIN1 (11741810_x_at) / Fold change /veh BIN1 (11741810_x_at) / RFU WNT11 (11732464_a_at) / Fold change /veh WNT11 (11732464_a_at) / RFU C10orf10 (11716521_a_at) / Fold change /veh C10orf10 (11716521_a_at) / RFU C5orf56 (11738089_at) / Fold change /veh C5orf56 (11738089_at) / RFU CYB561 (11721691_x_at) / Fold change /veh CYB561 (11721691_x_at) / RFU ANKRD19P (11752326_a_at) / Fold change /veh ANKRD19P (11752326_a_at) / RFU OR2T12 /// OR2T33 /// OR2T8 (11738714_s_at) / Fold change /veh OR2T12 /// OR2T33 /// OR2T8 (11738714_s_at) / RFU VCAN (11748164_a_at) / Fold change /veh VCAN (11748164_a_at) / RFU JSRP1 (11732532_at) / Fold change /veh JSRP1 (11732532_at) / RFU KRTAP10-11 (11738290_x_at) / Fold change /veh KRTAP10-11 (11738290_x_at) / RFU MYO3A (11730013_a_at) / Fold change /veh MYO3A (11730013_a_at) / RFU EBF3 (11725865_a_at) / Fold change /veh EBF3 (11725865_a_at) / RFU CAMK2N1 (11719241_x_at) / Fold change /veh CAMK2N1 (11719241_x_at) / RFU C5orf56 (11738088_a_at) / Fold change /veh C5orf56 (11738088_a_at) / RFU OLFML3 (11715873_a_at) / Fold change /veh OLFML3 (11715873_a_at) / RFU LOC100653217 /// NTM (11731650_a_at) / Fold change /veh LOC100653217 /// NTM (11731650_a_at) / RFU MAPK11 (11762145_a_at) / Fold change /veh MAPK11 (11762145_a_at) / RFU FIZ1 (11724087_x_at) / Fold change /veh FIZ1 (11724087_x_at) / RFU OASL (11726364_x_at) / Fold change /veh OASL (11726364_x_at) / RFU SOX15 (11748057_x_at) / Fold change /veh SOX15 (11748057_x_at) / RFU CD79A (11719716_a_at) / Fold change /veh CD79A (11719716_a_at) / RFU HIST1H1D (11736915_at) / Fold change /veh HIST1H1D (11736915_at) / RFU CASKIN2 (11723855_a_at) / Fold change /veh CASKIN2 (11723855_a_at) / RFU LOC730098 (11760151_x_at) / Fold change /veh LOC730098 (11760151_x_at) / RFU OR4N2 (11742367_at) / Fold change /veh OR4N2 (11742367_at) / RFU PRRT2 (11749266_a_at) / Fold change /veh PRRT2 (11749266_a_at) / RFU SNX32 (11753110_a_at) / Fold change /veh SNX32 (11753110_a_at) / RFU CDHR5 (11726645_a_at) / Fold change /veh CDHR5 (11726645_a_at) / RFU RCAN1 (11760418_a_at) / Fold change /veh RCAN1 (11760418_a_at) / RFU FAM167A (11723789_a_at) / Fold change /veh FAM167A (11723789_a_at) / RFU FAM26E (11764081_at) / Fold change /veh FAM26E (11764081_at) / RFU ISYNA1 (11749810_s_at) / Fold change /veh ISYNA1 (11749810_s_at) / RFU ACY1 (11761880_at) / Fold change /veh ACY1 (11761880_at) / RFU 11764098_at / Fold change /veh 11764098_at / RFU SAMD14 (11745864_x_at) / Fold change /veh SAMD14 (11745864_x_at) / RFU NPB (11741838_a_at) / Fold change /veh NPB (11741838_a_at) / RFU TMPRSS6 (11731388_a_at) / Fold change /veh TMPRSS6 (11731388_a_at) / RFU KRTAP10-2 (11738614_at) / Fold change /veh KRTAP10-2 (11738614_at) / RFU ARHGAP8 /// PRR5-ARHGAP8 (11727945_x_at) / Fold change /veh ARHGAP8 /// PRR5-ARHGAP8 (11727945_x_at) / RFU KRTAP5-7 /// NADSYN1 (11734609_at) / Fold change /veh KRTAP5-7 /// NADSYN1 (11734609_at) / RFU RASL12 (11751679_a_at) / Fold change /veh RASL12 (11751679_a_at) / RFU CDKN2B (11736163_a_at) / Fold change /veh CDKN2B (11736163_a_at) / RFU PRF1 (11729649_at) / Fold change /veh PRF1 (11729649_at) / RFU, ZNF638 /// ZNF638-IT1 / Fold change vs veh, ZNF638 /// ZNF638-IT1 / RFU, PANK3 / Fold change vs veh, PANK3 / RFU, SH3YL1 / Fold change vs veh, SH3YL1 / RFU, ZEB2 / Fold change vs veh, ZEB2 / RFU, NRIP1 / Fold change vs veh, NRIP1 / RFU, PTTG1IP / Fold change vs veh, PTTG1IP / RFU, CAPN2 / Fold change vs veh, CAPN2 / RFU, MED14 / Fold change vs veh, MED14 / RFU, SNORA58 / Fold change vs veh, SNORA58 / RFU, C1orf63 / Fold change vs veh, C1orf63 / RFU, LRRFIP1 / Fold change vs veh, LRRFIP1 / RFU, NDUFAF7 / Fold change vs veh, NDUFAF7 / RFU, SLC12A2 / Fold change vs veh, SLC12A2 / RFU, IBTK / Fold change vs veh, IBTK / RFU, ESF1 / Fold change vs veh, ESF1 / Fold change vs veh, TMEM50B / RFU, TAOK1 / Fold change vs veh, TAOK1 / RFU, ACBD3 / Fold change vs veh, ACBD3 / RFU, TMA16 / Fold change vs veh, TMA16 / RFU, RWDD3 / Fold change vs veh, RWDD3 / RFU, BCAT1 / Fold change vs veh, BCAT1 / RFU, EDEM3 / Fold change vs veh, EDEM3 / RFU, TMEM33 / Fold change vs veh, TMEM33 / RFU, WDR75 / Fold change vs veh, WDR75 / RFU, AHCTF1 / Fold change vs veh, AHCTF1 / RFU, TFRC / Fold change vs veh, TFRC / RFU, ZDHHC17 / Fold change vs veh, ZDHHC17 / RFU, NOM1 / Fold change vs veh, NOM1 / RFU, ARL8B / Fold change vs veh, ARL8B / RFU, ZBTB11 / Fold change vs veh, ZBTB11 / RFU, TAMM41 / Fold change vs veh, TAMM41 / RFU, KIAA1704 /// LOC100996395 / Fold change vs veh, KIAA1704 /// LOC100996395 / RFU, ING1 / Fold change vs veh, ING1 / RFU, TRMT61B / Fold change vs veh, TRMT61B / RFU, FUBP3 / Fold change vs veh, FUBP3 / RFU, TP53 / Fold change vs veh, TP53 / RFU, TNKS2 / Fold change vs veh, TNKS2 / RFU, ZFP14 / Fold change vs veh, ZFP14 / RFU, ACTR2 / Fold change vs veh, ACTR2 / RFU, PPP3R1 / Fold change vs veh, PPP3R1 / RFU, PIK3R1 / Fold change vs veh, PIK3R1 / RFU, HNRNPA1 / Fold change vs veh, HNRNPA1 / RFU, RNF170 / Fold change vs veh, RNF170 / RFU, ZNF28 / Fold change vs veh, ZNF28 / RFU, RNGTT / Fold change vs veh, RNGTT / RFU, OGT / Fold change vs veh, OGT / RFU, BRD1 / Fold change vs veh, BRD1 / RFU, MARS / Fold change vs veh, MARS / RFU, ZNF655 / Fold change vs veh, ZNF655 / RFU, FAHD1 / Fold change vs veh, FAHD1 / RFU, BDP1 / Fold change vs veh, BDP1 / RFU, LRRCC1 / Fold change vs veh, LRRCC1 / RFU, ARID1A / Fold change vs veh, ARID1A / RFU, ZNF146 / Fold change vs veh, ZNF146 / RFU, ZNF330 / Fold change vs veh, ZNF330 / RFU, GPN3 / Fold change vs veh, GPN3 / RFU, C9orf123 / Fold change vs veh, C9orf123 / RFU, N4BP2L2 / Fold change vs veh, N4BP2L2 / RFU, ARFIP1 / Fold change vs veh, ARFIP1 / RFU, FAM179B / Fold change vs veh, FAM179B / RFU, BCL10 / Fold change vs veh, BCL10 / RFU, UHRF1BP1L / Fold change vs veh, UHRF1BP1L / RFU, BET1 / Fold change vs veh, BET1 / RFU, CNOT2 / Fold change vs veh, CNOT2 / RFU, ZNF268 / Fold change vs veh, ZNF268 / Fold change vs veh, ZNF507 / RFU, DGCR2 / Fold change vs veh, DGCR2 / RFU, WDSUB1 / Fold change vs veh, WDSUB1 / Fold change vs veh, HSP90B1 /// MIR3652 / RFU, ADSS / Fold change vs veh, ADSS / RFU, GK / Fold change vs veh, GK / RFU, ZNF148 / Fold change vs veh, ZNF148 / RFU, TAF9 / Fold change vs veh, TAF9 / RFU, SLC1A5 / Fold change vs veh, SLC1A5 / RFU, SLMO2 / Fold change vs veh, SLMO2 / RFU, ABCC4 / Fold change vs veh, ABCC4 / RFU, LOC101060439 /// RAP1B / Fold change vs veh, LOC101060439 /// RAP1B / RFU, RFX7 / Fold change vs veh, RFX7 / RFU, GTPBP10 / Fold change vs veh, GTPBP10 / RFU, CNEP1R1 / Fold change vs veh, CNEP1R1 / RFU, BIVM-ERCC5 /// ERCC5 / Fold change vs veh, BIVM-ERCC5 /// ERCC5 / RFU, ILF3 / Fold change vs veh, ILF3 / RFU 11762660_at / Fold change /veh 11762660_at / RFU VCAN (11757783_s_at) / Fold change /veh VCAN (11757783_s_at) / RFU DDX43 (11728927_at) / Fold change /veh DDX43 (11728927_at) / RFU KRT8 (11758188_x_at) / Fold change /veh KRT8 (11758188_x_at) / RFU NKD1 (11759106_at) / Fold change /veh NKD1 (11759106_at) / RFU SRD5A1 (11742802_a_at) / Fold change /veh SRD5A1 (11742802_a_at) / RFU TPSAB1 /// TPSB2 (11721975_s_at) / Fold change /veh TPSAB1 /// TPSB2 (11721975_s_at) / RFU GSTM3 (11746129_a_at) / Fold change /veh GSTM3 (11746129_a_at) / RFU IL23R (11737362_x_at) / Fold change /veh IL23R (11737362_x_at) / RFU TMEM51 (11727254_a_at) / Fold change /veh TMEM51 (11727254_a_at) / RFU PIWIL2 (11732686_x_at) / Fold change /veh PIWIL2 (11732686_x_at) / RFU ORM1 (11744905_x_at) / Fold change /veh ORM1 (11744905_x_at) / RFU CCDC152 (11743942_at) / Fold change /veh CCDC152 (11743942_at) / RFU ECM1 (11717891_a_at) / Fold change /veh ECM1 (11717891_a_at) / RFU IL23R (11748794_a_at) / Fold change /veh IL23R (11748794_a_at) / RFU TNFAIP8L3 (11732012_x_at) / Fold change /veh TNFAIP8L3 (11732012_x_at) / RFU MBOAT4 (11741988_at) / Fold change /veh MBOAT4 (11741988_at) / RFU 11764193_at / Fold change /veh 11764193_at / RFU TMEM53 (11763286_at) / Fold change /veh TMEM53 (11763286_at) / RFU MAGEB2 (11727129_at) / Fold change /veh MAGEB2 (11727129_at) / RFU TMEM200A (11744735_a_at) / Fold change /veh TMEM200A (11744735_a_at) / RFU CCDC152 (11751479_a_at) / Fold change /veh CCDC152 (11751479_a_at) / RFU FAM211A (11726209_a_at) / Fold change /veh FAM211A (11726209_a_at) / RFU RGS16 (11746705_a_at) / Fold change /veh RGS16 (11746705_a_at) / RFU VCAN (11755009_s_at) / Fold change /veh VCAN (11755009_s_at) / RFU RHOB (11743442_s_at) / Fold change /veh RHOB (11743442_s_at) / RFU RGS16 (11720943_a_at) / Fold change /veh RGS16 (11720943_a_at) / RFU RGS16 (11720944_at) / Fold change /veh RGS16 (11720944_at) / RFU, VPS4B / Fold change vs veh, VPS4B / RFU, CREB1 / Fold change vs veh, CREB1 / RFU, DNAJC13 / Fold change vs veh, DNAJC13 / RFU, GNAQ / Fold change vs veh, GNAQ / RFU, CDK5R1 / Fold change vs veh, CDK5R1 / RFU, ZRANB3 / Fold change vs veh, ZRANB3 / RFU, CUL4A / Fold change vs veh, CUL4A / RFU, CCNY / Fold change vs veh, CCNY / RFU, UFL1 / Fold change vs veh, UFL1 / RFU, COG3 / Fold change vs veh, COG3 / RFU, DIAPH2 / Fold change vs veh, DIAPH2 / RFU, SKA2 / Fold change vs veh, SKA2 / RFU, AFF3 / Fold change vs veh, AFF3 / RFU, LMF1 / Fold change vs veh, LMF1 / RFU, IPO11 / Fold change vs veh, IPO11 / RFU, DFFB / Fold change vs veh, DFFB / RFU, FOXP1 / Fold change vs veh, FOXP1 / RFU, CARD8 / Fold change vs veh, CARD8 / RFU, STRN3 / Fold change vs veh, STRN3 / RFU, ADK / Fold change vs veh, ADK / RFU, RASSF2 / Fold change vs veh, RASSF2 / RFU, WIPF1 / Fold change vs veh, WIPF1 / RFU, LARP1B / Fold change vs veh, LARP1B / RFU, RASA1 / Fold change vs veh, RASA1 / RFU, RB1 / Fold change vs veh, RB1 / RFU, PPFIA1 / Fold change vs veh, PPFIA1 / RFU, MAT2A / Fold change vs veh, MAT2A / RFU, CCT5 / Fold change vs veh, CCT5 / RFU, WDR92 / Fold change vs veh, WDR92 / RFU, CUX1 / Fold change vs veh, CUX1 / RFU, TTC7A / Fold change vs veh, TTC7A / RFU, TMEM135 / Fold change vs veh, TMEM135 / RFU, DEPTOR / Fold change vs veh, DEPTOR / RFU, CPM / Fold change vs veh, CPM / RFU, DNAJB6 / Fold change vs veh, DNAJB6 / RFU, CACNA2D3 / Fold change vs veh, CACNA2D3 / RFU, DTX4 / Fold change vs veh, DTX4 / RFU, TFCP2 / Fold change vs veh, TFCP2 / RFU, GMCL1 /// GMCL1P1 / Fold change vs veh, GMCL1 /// GMCL1P1 / RFU, AEBP2 / Fold change vs veh, AEBP2 / RFU, SNHG1 /// SNORD22 /// SNORD25 /// SNORD26 /// SNORD27 /// SNORD28 /// SNORD29 /// SNORD31 / Fold change vs veh, SNHG1 /// SNORD22 /// SNORD25 /// SNORD26 /// SNORD27 /// SNORD28 /// SNORD29 /// SNORD31 / Fold change (Aza/veh), C12orf56 (ProbeSet 11735607_a_at) / Fold change (ACY-1035/veh), C12orf56 (ProbeSet 11735607_a_at) / Fold change (Aza/veh), FGFR1OP (ProbeSet 11751329_s_at) / Fold change (ACY-1035/veh), FGFR1OP (ProbeSet 11751329_s_at) / Fold change (Aza/veh), VPS36 (ProbeSet 11739960_a_at) / Fold change (ACY-1035/veh), VPS36 (ProbeSet 11739960_a_at) / RFU SYPL1 (11715823_x_at) / Fold change /veh SYPL1 (11715823_x_at) / RFU IGFBP7 (11715501_s_at) / Fold change /veh IGFBP7 (11715501_s_at) / RFU REEP3 (11722064_at) / Fold change /veh REEP3 (11722064_at) / RFU IGLL1 (11728026_x_at) / Fold change /veh IGLL1 (11728026_x_at): dose or concentration left out as unconfirmed
Settings: MV-4-11 cells, 48 hours

Nc1ncn([C@@H]2O[C@H](CO)[C@@H](O)[C@H]2O)c(=O)n1 [azacitidine]
RFU MAGEB2 (11727129_at): 14.25 RFU
